Assays:
Details in all cases: 72 h
Calu-3 [1] = assay: cell viability relative to DMSO; higher = less toxic
U2OS [2] = assay: as above
Vero E6 [3] = assay: as above
Caco-2 [4] = assay: as above
HepG2 [5] = assay: as above
Calu-3 [6] = assay: drug sensitivity score (DSS) for viability; higher = more toxic; extreme values may be limits of the assay
U2OS [7] = assay: as above
Vero E6 [8] = assay: as above
Caco-2 [9] = assay: as above
HepG2 [10] = assay: as above
Calu-3 [11] = assay: relative viability EC50 (midpoint between 100% and the lowest measured viability); higher = less toxic
Caco-2 [12] = assay: as above
HepG2 [13] = assay: as above
Vero E6 [14] = assay: as above

Row | Structure (SMILES) | cell viability (Calu-3 [1]; 1 nM) | cell viability (Calu-3 [1]; 10 nM) | cell viability (Calu-3 [1]; 100 nM) | cell viability (Calu-3 [1]; 1000 nM) | cell viability (Calu-3 [1]; 10000 nM) | cell viability (U2OS [2]; 1 nM) | cell viability (U2OS [2]; 10 nM) | cell viability (U2OS [2]; 100 nM) | cell viability (U2OS [2]; 1000 nM) | cell viability (U2OS [2]; 10000 nM) | cell viability (Vero E6 [3]; 1 nM) | cell viability (Vero E6 [3]; 10 nM) | cell viability (Vero E6 [3]; 100 nM) | cell viability (Vero E6 [3]; 1000 nM) | cell viability (Vero E6 [3]; 10000 nM) | cell viability (Caco-2 [4]; 1 nM) | cell viability (Caco-2 [4]; 10 nM) | cell viability (Caco-2 [4]; 100 nM) | cell viability (Caco-2 [4]; 1000 nM) | cell viability (Caco-2 [4]; 10000 nM) | cell viability (HepG2 [5]; 1 nM) | cell viability (HepG2 [5]; 10 nM) | cell viability (HepG2 [5]; 100 nM) | cell viability (HepG2 [5]; 1000 nM) | cell viability (HepG2 [5]; 10000 nM) | drug sensitivity score (Calu-3 [6]) | drug sensitivity score (U2OS [7]) | drug sensitivity score (Vero E6 [8]) | drug sensitivity score (Caco-2 [9]) | drug sensitivity score (HepG2 [10]) | relative viability EC50 (Calu-3 [11]) | relative viability EC50 (Caco-2 [12]) | relative viability EC50 (HepG2 [13]) | relative viability EC50 (Vero E6 [14])
1 | Cc1nc(N)sc1-c1ccnc(Nc2ccc(N3CCOCC3)cc2)n1 [CYC116] | 104% | 109% | 101% | 105% | 75.5% | 104% | 102% | 103% | 89.6% | 53.7% | 100% | 103% | 99% | 80.8% | 51.6% | 99.3% | 87.4% | 98.8% | 87.7% | 75.1% | 97.9% | 106% | 97.9% | 77.8% | 28.4% | 0.7 | 4.1 | 5.1 | 1.7 | 7.2 | > 10 µM | > 10 µM | 1.38 µM | 
2 | CC(=O)[C@@]1(O)CC[C@H]2[C@@H]3C=C(Cl)C4=CC(=O)[C@@H]5C[C@@H]5[C@]4(C)[C@H]3CC[C@@]21C [CYPROTERONE] | 99.5% | 101% | 103% | 86.6% | 97.4% |  |  |  |  |  | 101% | 107% | 99.5% | 104% | 94.9% | 106% | 89.5% | 112% | 102% | 95% |  |  |  |  |  | 0 |  | 0 | 0 |  | > 10 µM | > 10 µM |  | > 10 µM
3 | COC(=O)[C@H](CC(C)C)NC(=O)c1ccc(NC[C@@H](N)CS)cc1-c1cccc2ccccc12 [GGTI-298] | 93.1% | 104% | 88.8% | 100% | 93.7% | 95.3% | 97.4% | 92.7% | 94.3% | 60.9% | 105% | 110% | 104% | 86.3% | 92.7% | 92.3% | 100% | 95.2% | 98.8% | 75.9% | 90.4% | 106% | 101% | 93.8% | 100% | 0 | 2.9 | 0.9 | 1 | 0 | > 10 µM | > 10 µM | > 10 µM | > 10 µM
4 | N[C@@H](CS)C(=O)O [L-cysteine] |  |  |  |  |  |  |  |  |  |  |  |  |  |  |  |  |  |  |  |  |  |  |  |  |  | 0 | 0 | 0 |  | 0.2 |  |  |  | 
5 | Cn1cnc(-c2cc3nccc(Oc4ccc(NC(=S)NC(=O)Cc5ccccc5)cc4F)c3s2)c1 [MGCD-265] | 96.6% | 93.1% | 100% | 86.9% | 62.3% | 102% | 95.9% | 103% | 96.5% | 67.3% | 106% | 106% | 103% | 104% | 77.3% | 97% | 99.8% | 98.3% | 84% | 63.6% | 103% | 92.7% | 97.6% | 97.9% | 80.6% | 3.7 | 2 | 0.6 | 3.5 | 0.8 |  |  | > 10 µM | > 10 µM
6 | Oc1cccc(-c2nc(N3CCOCC3)c3oc4ncccc4c3n2)c1 [PI-103] | 105% | 95.1% | 81.9% | 84.1% | 53.6% | 103% | 100% | 97% | 69.4% | 76.6% | 98.3% | 96.2% | 87.9% | 50.5% | 53% | 100% | 96.9% | 81.2% | 42.4% | 49.9% | 98.8% | 104% | 99.7% | 70.9% | 62% | 5.1 | 5.6 | 11 | 13.1 | 5.3 |  | 0.14 µM |  | 
7 | O=C(CBr)N1CC([N+](=O)[O-])([N+](=O)[O-])C1 [RRx-001] | 101% | 91.6% | 116% | 100% | 100% |  |  |  |  |  | 106% | 106% | 99.6% | 102% | 102% | 105% | 98.3% | 113% | 104% | 105% | 102% | 114% | 109% | 106% | 94.8% | 0 |  | 0 | 0 | 0 | > 10 µM | > 10 µM | > 10 µM | > 10 µM
8 | COCCOCCOc1ccc(C2=N[C@@](C)(C(=O)O)CS2)c(O)c1 [SP-420] | 95.1% | 102% | 103% | 95.5% | 91.4% | 103% | 99.5% | 108% | 98.5% | 65.4% | 95% | 98.5% | 98.3% | 105% | 100% | 91.5% | 92.1% | 94.1% | 96% | 54% | 99.8% | 94.7% | 93% | 102% | 70.6% | 0 | 1.8 | 0 | 3 | 1.1 | > 10 µM |  |  | > 10 µM
9 | CCC(=O)O[C@H]1CC[C@H]2[C@@H]3CCC4=CC(=O)CC[C@]4(C)[C@H]3CC[C@]12C [TESTOSTERONE PROPIONATE] |  |  |  |  |  |  |  |  |  |  |  |  |  |  |  |  |  |  |  |  |  |  |  |  |  |  | 0 | 0 |  | 0 |  |  |  | 
